Measurements published in article PMC2962915, “The –SH Protection Method for Determining Accurate Kd Values for Enzyme-Coenzyme Complexes of NAD^+-Dependent Glutamate Dehydrogenase and Engineered Mutants: Evidence for Nonproductive NADPH Complexes” (Enzyme Research, 2010).
Read-outs that look alike come from different tables or passages of the source.

Target: T1, clostridial glutamate dehydrogenase (GDH) ([Clostridium] symbiosum, UniProt P24295)
T1 construct: no tag mentioned
T1 sequence (P24295 2-450): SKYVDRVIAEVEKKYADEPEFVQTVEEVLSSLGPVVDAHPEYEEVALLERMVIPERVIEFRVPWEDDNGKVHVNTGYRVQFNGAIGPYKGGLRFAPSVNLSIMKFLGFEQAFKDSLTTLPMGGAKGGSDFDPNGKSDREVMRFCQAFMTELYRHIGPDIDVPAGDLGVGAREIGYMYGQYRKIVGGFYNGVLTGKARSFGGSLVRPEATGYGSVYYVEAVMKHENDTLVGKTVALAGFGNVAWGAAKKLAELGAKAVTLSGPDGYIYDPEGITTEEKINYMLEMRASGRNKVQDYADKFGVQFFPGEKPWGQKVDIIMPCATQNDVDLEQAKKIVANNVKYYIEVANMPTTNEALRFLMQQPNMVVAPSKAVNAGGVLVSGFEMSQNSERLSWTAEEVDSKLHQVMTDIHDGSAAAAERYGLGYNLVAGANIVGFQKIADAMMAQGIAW
Assay: protection against DTNB inactivation
Assay type: biochemical
Conditions: 0.1 M potassium phosphate, pH 7.0, 25°C, 200 μM DTNB, competitive with DTNB at coenzyme site, Kd corrected for DTNB
Excerpt: protection against DTNB inactivation on clostridial glutamate dehydrogenase (GDH)

NC(=O)C1=CN([C@@H]2O[C@H](COP(=O)(O)OP(=O)(O)OC[C@H]3O[C@@H](n4cnc5c(N)ncnc54)[C@H](OP(=O)(O)O)[C@@H]3O)[C@@H](O)[C@H]2O)C=CC1 [NADPH]
Kd (read-out: K dNADPH): 23 ± 1 µM

NC(=O)C1=CN([C@@H]2O[C@H](COP(=O)(O)OP(=O)(O)OC[C@H]3O[C@@H](n4cnc5c(N)ncnc54)[C@H](O)[C@@H]3O)[C@@H](O)[C@H]2O)C=CC1 [NADH]
Kd (read-out: K dNADH): 24 ± 1 µM

NC(=O)c1ccc[n+]([C@@H]2O[C@H](COP(=O)(O)OP(=O)(O)OC[C@H]3O[C@@H](n4cnc5c(N)ncnc54)[C@H](O)[C@@H]3O)[C@@H](O)[C@H]2O)c1 [NAD^+]
Kd (read-out: K dNAD+): 335 ± 17 µM
